Laboratory results from article PMC3543868 (Cell reports, 2012).

Biological target: GroEL in complex with its cofactor GroES (Escherichia coli, UniProt P0A6F5)
Conditions: with GroES (singly capped); no AlFx; labelled compound

GroEL in complex with its cofactor GroES, sequence (P0A6F5 2-548): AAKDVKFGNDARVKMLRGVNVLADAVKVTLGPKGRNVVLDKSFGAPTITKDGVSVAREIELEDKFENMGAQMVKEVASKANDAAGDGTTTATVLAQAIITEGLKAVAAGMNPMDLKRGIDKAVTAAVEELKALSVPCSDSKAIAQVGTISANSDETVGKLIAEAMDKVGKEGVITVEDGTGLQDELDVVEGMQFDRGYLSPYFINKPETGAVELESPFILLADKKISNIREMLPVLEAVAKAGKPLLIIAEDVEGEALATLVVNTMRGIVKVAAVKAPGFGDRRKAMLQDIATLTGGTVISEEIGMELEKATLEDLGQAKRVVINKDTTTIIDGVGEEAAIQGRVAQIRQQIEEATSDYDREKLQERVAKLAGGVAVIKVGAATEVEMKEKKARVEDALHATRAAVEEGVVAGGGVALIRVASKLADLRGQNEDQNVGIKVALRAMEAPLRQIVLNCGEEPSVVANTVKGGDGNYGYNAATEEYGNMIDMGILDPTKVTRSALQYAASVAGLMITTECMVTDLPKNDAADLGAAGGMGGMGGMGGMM
GroEL in complex with its cofactor GroES, sequence (P0A6F9 whole entry, further chain): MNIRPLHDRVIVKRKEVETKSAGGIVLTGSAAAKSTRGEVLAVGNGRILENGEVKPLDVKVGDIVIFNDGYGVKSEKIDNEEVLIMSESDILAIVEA

Nc1ncnc2c1ncn2[C@@H]1O[C@H](COP(=O)(O)OP(=O)(O)OP(=O)(O)O)[C@@H](O)[C@H]1O [ATP]
nucleotides per GroEL 14-mer: ~ 7 nucleotides per GroEL 14-mer
